“And” between values parts separate entries of the source, which are not always exact repeats. Equal values may be shown once. Read-outs that look alike come from different tables or passages of the source.
Assays:
[1] = target: T1, CYP3A4 (Homo sapiens, UniProt P08684); test: Vivid CYP3A4 Red Screening Kit fluorimetric inhibition assay (BOMR substrate); format: biochemical; conditions: human
T1 construct: purchased ThermoFisher Scientific Cat. no; 2856
Procedure: (§1) Flavone, galangin, resokaempferol, myricetin, and gossypetin were purchased from Indofine Chemical Company, Inc. (Hillsborough, NJ, USA). Kaempferol and scutellarein were obtained from Extrasynthese (Genay, France). […] Fisetin was obtained from Biosynth (Staad, Switzerland). […] Dimethyl sulfoxide (DMSO) was obtained from VWR International (Radnor, PA, USA), and acetonitrile was obtained from Merck KGaA (Darmstadt, Germany). The effect on CYP3A4 catalytic performance was evaluated using the Vivid® CYP3A4 Screening Kit (ThermoFischer Scientific, Waltham, MA, USA), following the indications of the manufacturer. This kit assesses how tested compounds affect the rate of fluorescence increase caused by the breakdown of a resorufin-blocked dye substrate by the human CYP3A4 enzyme. The enzyme promoted the cleavage of substrate at two different bonds, both generating a red highly fluorescent dye, in order to minimize spectral interferences caused by other compounds in the reaction medium. […] This setup helped to further circumvent interference from highly fluorescent compounds like NADPH, which are excited at UV wavelengths. […] The last enzyme and its substrate work as NADPH regenerating system since it catalyzes its formation through NADP^+, added subsequently. […] The fluorescence measurements were performed every 30 s for 30 min in a microplate reader with plate shaking and temperature control, 29 °C (Cytation 5, BIO-TEK, Winooski, VT, USA). The percentage of inhibition was calculated based on the reaction initial rates measured from the constant slope values of the fluorescence–time charts. […] The statistical analysis comprised both comparisons by the Student’s t-test for mean % inhibition and one-way analysis of variance (ANOVA) for the comparison between concentrations on the IC50. […] Differences were significant for p < 0.05.

[2] = test system: CYP3A4; conditions: RLM, HPLC, cited from earlier work
[3] = test system: CYP3A4; conditions: BCS, fluorescence, cited from earlier work
[4] = target: T2, recombinant human CYP3A4 (Baculosomes) (Homo sapiens, UniProt P08684); test: Vivid CYP3A4 Red Screening Kit fluorimetric inhibition assay (BOMR substrate); format: biochemical; conditions: for IC50: Baculosomes, fluorescence, positive control KTZ, mean ± SEM; for Effect on CYP3A4 activity (in words): up to 50 µmol/L
T2 construct: purchased ThermoFisher Scientific Cat. no; 2856
Procedure: as §1

[5] = test system: CYP3A4; conditions: HLM, cited from earlier work
[6] = test system: CYP3A4; conditions: substrate BOMCC, enzyme not given, positive control ERYT, fluorescence; cited from earlier work
[7] = test system: CYP3A4; set-up: method as in PMID 31756459; conditions: cited from earlier work
[8] = recombinant enzyme, pH 8, CYP3A4 Inhibition (%) (50 µmol/L)
[9] = recombinant human CYP3A4 Baculosomes, pH 8, probe Vivid BOMR substrate, 50 µmol/L compound, BOMR substrate, mean ± SEM, negative = activation, read-out: CYP3A4 Inhibition (%) (50 µmol/L)
[10] = substrate TST, positive control KTZ, HPLC-UV

T2 sequence (P08684 whole entry): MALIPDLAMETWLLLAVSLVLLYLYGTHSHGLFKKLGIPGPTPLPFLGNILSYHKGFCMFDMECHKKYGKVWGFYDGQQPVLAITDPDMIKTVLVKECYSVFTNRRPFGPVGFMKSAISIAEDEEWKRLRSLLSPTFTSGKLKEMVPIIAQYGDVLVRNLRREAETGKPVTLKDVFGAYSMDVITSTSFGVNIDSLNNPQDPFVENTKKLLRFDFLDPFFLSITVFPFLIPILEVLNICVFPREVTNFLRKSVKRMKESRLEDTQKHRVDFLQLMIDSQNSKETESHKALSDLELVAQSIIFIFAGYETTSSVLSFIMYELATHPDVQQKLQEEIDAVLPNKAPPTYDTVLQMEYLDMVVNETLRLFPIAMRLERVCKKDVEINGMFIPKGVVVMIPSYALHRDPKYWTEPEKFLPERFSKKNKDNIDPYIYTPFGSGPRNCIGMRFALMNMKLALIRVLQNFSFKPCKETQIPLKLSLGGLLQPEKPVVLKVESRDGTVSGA
T1 sequence (P08684 whole entry): as above

## O=c1c(O)c(-c2cc(O)c(O)c(O)c2)oc2cc(O)cc(O)c12 [Myricetin]
[1]; [8]
  inhibition at 30 min, 50 µmol/L: 32 ± 12%

## O=c1c(O)c(-c2ccc(O)c(O)c2)oc2cc(O)cc(O)c12 [Quercetin]
[1]; [9]
  inhibition at 30 min, 50 µmol/L: ≥ 50%
[2]; substrate RPG, positive control KTZ
  IC50: […]
[3]; substrate BOMCC, positive control Erythro
  IC50: […]

## O=c1c(O)c(-c2ccc(O)cc2O)oc2cc(O)cc(O)c12 [Morin]
[1]; [9]
  inhibition at 30 min, 50 µmol/L: 38 ± 11%

## O=c1c(O)c(-c2ccc(O)c(O)c2)oc2c(O)c(O)cc(O)c12 [Gossypetin]
[1]; [8]
  inhibition at 30 min, 50 µmol/L: ≥ 50%
[4]; IC50, BOMR substrate
  IC50: 40 µM and 40.1 µM

## O=c1c(O)c(-c2ccccc2)oc2cc(O)cc(O)c12 [Galangin]
[1]; [9]
  inhibition at 30 min, 50 µmol/L: 4 ± 9%

## O=c1cc(-c2ccc(O)cc2)oc2cc(O)cc(O)c12 [Apigenin]
[1]; [8]
  inhibition at 30 min, 50 µmol/L: 23 ± 8%

## O=c1cc(-c2ccccc2)oc2cc(O)c(O)c(O)c12 [Baicalein]
[4]; IC50, BOMR substrate
  IC50: 15 ± 5 µM
[5]; different substrates, fluorescence
  IC50: 7.56 to 26.4 µM
[5]; [10]
  IC50: 9.6 ± 1.18 µM
[2]; substrate TST
  IC50: 12 µM
[3]; substrate BFC, positive control KTZ
  IC50: 9.2 µM

## O=c1c(O)c(-c2ccc(O)cc2)oc2cc(O)cc(O)c12 [Kaempferol]
[1]; [9]
  inhibition at 30 min, 50 µmol/L: 24 ± 8%

## O=c1cc(-c2ccc(O)cc2)oc2cc(O)c(O)c(O)c12 [Scutellarein]
[4]; BOMR substrate, read-out: IC50
  IC50: 19 µM and 19.1 µM

## O=c1cc(-c2ccc(O)c(O)c2)oc2cc(O)cc(O)c12 [Luteolin]
[1]; [9]
  inhibition at 30 min, 50 µmol/L: ≥ 50%
[4]; BOMR substrate, read-out: IC50
  IC50: 31 µM and 31.2 µM
[5]; [10]
  IC50: 4.62 ± 1.26 µM
[5]; substrate TST, positive control KTZ, RP-HPLC
  IC50: 6.8 µM
[6]
  IC50: 57.1 ± 16.1 µM

## O=C1C[C@@H](c2ccc(O)cc2)Oc2cc(O)cc(O)c21 [Naringenin]
[1]; [9]
  inhibition at 30 min, 50 µmol/L: -11 ± 5%
[4]
  Effect on CYP3A4 activity (in words): no inhibitory effect was noticed

## O=c1cc(-c2ccccc2)oc2ccccc12 [Flavone]
[1]; [9]
  inhibition at 30 min, 50 µmol/L: -179 ± 73%
[4]
  Effect on CYP3A4 activity (in words): could act as an activator of the enzyme
[7]
  Activation of CYP3A4: 94.65 ± 7.10%

## O=c1c(O)c(-c2ccc(O)cc2)oc2c(O)c(O)cc(O)c12 [Herbacetin]
[4]; BOMR substrate, read-out: IC50
  IC50: 32 µM and 31.5 µM
[5]; UPLC-MS/MS
  IC50: < 10 µM

## O=c1c(O)c(-c2ccc(O)c(O)c2)oc2cc(O)ccc12 [Fisetin]
[1]; [9]
  inhibition at 30 min, 50 µmol/L: 30 ± 13%

## O=c1c(O)c(-c2ccc(O)cc2)oc2cc(O)ccc12 [Resokaempferol]
[1]; [9]
  inhibition at 30 min, 50 µmol/L: 38 ± 7%

## O=c1cc(-c2ccccc2)oc2cc(O)cc(O)c12 [Chrysin]
[1]; [8]
  inhibition at 30 min, 50 µmol/L: 28 ± 17%
